Results: US11034717B2, “Farnesoid X receptor modulators” (Intercept Pharmaceuticals, Inc., priority 2015, dated 2021)
Where two headings read alike, the source gives them in different places.

Tests used:
HepG2 cells [1] = assay: In-vitro cytotoxicity, ATP content; type: cell-based; conditions: Table 5B, HepG2
Description: To evaluate in-vitro cytotoxicity of a compound of the invention, two different assay methods are employed. The assays evaluate cell viability by measuring ATP levels and cytotoxicity by measuring LDH release. […] It has been called the “molecular unit of currency” when it comes to intracellular energy transfer.
(§1) An additional method to determine the viability of cells is to detect the integrity of the membrane that defines the cellular compartmentalization. Measuring the leakage of components out of the cytoplasm, in damaged cell membranes, indicates loss of membrane integrity, and LDH release is the method used to determine common toxicity in cells. HepG2 cells are treated with a compound of the invention, and serial dilutions are performed. LCA dilutions are added to the plated cells as assay controls together with no-cell and untreated cells. The assay is performed in triplicate for each test compound concentration.

mTGR5 = mTGR5 (Mus musculus (Mouse), UniProt Q80SS6); assay: Cross species TGR5 activity, CHO cells, mouse; type: cell-based
hERG potassium channel = hERG potassium channel (Homo sapiens (Human), UniProt Q12809); assay: biochemical
Description: The assay is based on the assumption that the hERG potassium channel activity contributes to the resting membrane potential in permanently transfected cells, and thus a block of hERG channels should result in a depolarization of the cell membrane. The assay is designed to identify potential hERG channel blockers by producing data that accurately correlates with patch-clamp electrophysiology studies.
Membrane preparations from Chinese hamster ovary cells stably transfected with hERG potassium channel are used to evaluate the potential inhibitory effect of a compound of the invention on this channel using the Predictor™ fluorescence polarization assay. Reduction of membrane polarization as a result of inhibition of the hERG potassium channel is directly correlated with a reduction of the fluorescence polarization (FP).
An assay window more than 100 mP (millipolarization) is considered good. The non-linear regression curves are obtained by GraphPad Prism (GraphPad Software Inc.) analysis, to calculate the IC50 values.

rTGR5 = rTGR5 (Rattus norvegicus (Rat), UniProt Q80T02); assay: Cross species TGR5 activity, CHO cells, rat; type: cell-based
CYP2D6 = CYP2D6 (Homo sapiens (Human), UniProt P10635); assay: CYP450 inhibition, fluorescent substrate, recombinant baculosomes; type: in vitro ADME; conditions: read-out: CYP2D6 IC50
Experimental: (§2) To evaluate the potential of a compound of the invention for drug-drug interactions, the six main CYP450 isoforms (CYP1A2, CYP2C9, CYP2C19, CYP2D6, CYP2E1, CYP3A4) are investigated (Obach, et al., J Pharmacol. Exp. Ther, 2006, 316, 336-348).
(§3) To determine interaction between a compound of the invention and cytochrome P450 enzymes, the compound of the invention is analyzed by its capacity to inhibit (or not) the production of a fluorescent signal, using recombinant CYP450 proteins (baculosomes; Invitrogen), substrates and inhibitors (Bidstrup, et al., Br J Clin. Pharmacol, 2003, 56, 305-14). As a positive control, a selective inhibitor for each CYP450 isoform is tested in the same plate.

CYP2C19 = CYP2C19 (Homo sapiens (Human), UniProt P33261); assay: as above; type: in vitro ADME; conditions: read-out: CYP2C19 IC50
Experimental: as §2, §3

CYP2E1 = CYP2E1 (Homo sapiens (Human), UniProt P05181); assay: as above; type: in vitro ADME; conditions: read-out: CYP2E1 IC50
Experimental: as §2, §3

CYP3A4 = CYP3A4 (Homo sapiens (Human), UniProt P08684); assay: as above; type: in vitro ADME
Experimental: as §2, §3

CYP1A2 = CYP1A2 (Homo sapiens (Human), UniProt P05177); assay: as above; type: in vitro ADME
Experimental: as §2, §3

CYP2C9 = CYP2C9 (Homo sapiens (Human), UniProt P11712); assay: as above; type: in vitro ADME; conditions: read-out: CYP2C9 IC50
Experimental: as §2, §3

HepG2 cells [2] = assay: In-vitro cytotoxicity, membrane integrity (LDH release); type: cell-based
Description: (§4) To evaluate in-vitro cytotoxicity of a compound of the invention, two different assay methods are employed. The assays evaluate cell viability by measuring ATP levels and cytotoxicity by measuring LDH release. Adenosine Triphosphate (ATP) nucleotide represents the source of energy at the basic molecular level, as it is a multifunctional molecule that is used in every cell as a coenzyme and is an integral part of the mitochondrial DNA (Kangas, et al., Medical Biology, 1984, 62, 338-343; Crouch, et al., J Immunol. Methods, 1993, 160, 81-88; and Petty, et al., J Biolumin. Chemilumin. 1995, 10, 29-34). It has been called the “molecular unit of currency” when it comes to intracellular energy transfer.
as §1

[3] = test system: nuclear receptors LXRP, PXR, CAR, PPARα, PPARγ, RAR, RARα, VDR, TR, PR, RXR, GR, and ER; assay: Nuclear receptor selectivity profile (AlphaScreen); type: biochemical; conditions: for Activation of nuclear receptor panel, agonist mode: dose response to 200 μM; for Activity on nuclear receptor panel, antagonist mode: fixed concentration at 10 μM
Experimental: Using the AlphaScreen assay, the selectivity of a compound of the invention against the following nuclear receptors involved in the metabolic pathways can be evaluated: LXRP, PXR, CAR, PPARα, PPARα, PPARγ, RAR, RARα, VDR, TR, PR, RXR, GR, and ER.
Compounds L1, 3, 5, 6 and 7 were tested against the panel of available nuclear receptor in both agonist and antagonist mode.

[4] = 1-octanol-water partition coefficient of ionized species; type: physicochemical
Experimental: (§5) Physiochemical properties of a compound of the invention such as water solubility, critical micellar concentration, surface tension, and LogPA were determined using methods known in the art.

[5] = test system: FXR target genes: BSEP, SHP, OSTβ and CYP7A1; assay: FXR target gene panel, quantitative RT-PCR in HepG2 cells; type: cell-based; conditions: stimulation for 18 hours
Experimental: To evaluate the capacity of a compound of the invention to modulate FXR target genes, quantitative RT-PCR assays are performed. HepG2 cells are selected as a relevant cell line to determine whether a compound of the invention can regulate the endogenous FXR genetic network. The ability of a compound of the invention to induce FXR target genes is assessed by isolating total RNA from cells treated overnight with 1 μM of compounds A, B, and a compound of the invention.
FXR regulates the expression of several target genes involved in BA homeostasis. Briefly, FXR plays a central role in several metabolic pathways, including i.e., lipid metabolism, bile-acids metabolism, and carbohydrate metabolism. Regarding gene expression profiling, the genes encoding proteins involved in lipid metabolism include, e.g., APOCII, APOE, APOAI, SREBP-1C, VLDL-R, PLTP, and LPL; the genes encoding proteins involved in bile-acids metabolism include, e.g., OSTα/β, BSEP, MRP2, SHP, CYP7A1, FGF19, SULT2A1, and UGT2B4; and the genes encoding proteins involved in carbohydrate metabolism include, e.g., PGCla, PEPCK, and GLUT2. FXR target genes: BSEP, SHP, OSTβ and CYP7A1 were evaluated following stimulation of Compounds 3, 5, 6, and 7 on HepG2 cells for 18 hours. Compound L1 was used as a control.

hTGR5 [6] = target: T1, hTGR5 (Homo sapiens (Human), UniProt Q8TDU6); assay: HTR-FRET intracellular cAMP assay in NCI-H716 cells; type: cell-based; conditions: Table 2
hTGR5 [7] = target: T1, hTGR5; assay: Cross species TGR5 activity, CHO cells, human; type: cell-based
dTGR5 = assay: Cross species TGR5 activity, CHO cells, dog; type: cell-based
[8] = Critical micellar concentration; type: physicochemical; conditions: determined in […] NaCl water solution
Experimental: as §5

[9] = In-vitro cytotoxicity, membrane integrity (LDH release); type: cell-based; conditions: human; HepG2; read-out: Membrane Integrity (LDH measure) LC50
Description: as §4, §1

[10] = Blue substrate, read-out: CYP3A4 (Blue substrate) IC50
[11] = Green substrate, read-out: CYP3A4 (Green substrate) IC50

T1 sequence (Q8TDU6 whole entry): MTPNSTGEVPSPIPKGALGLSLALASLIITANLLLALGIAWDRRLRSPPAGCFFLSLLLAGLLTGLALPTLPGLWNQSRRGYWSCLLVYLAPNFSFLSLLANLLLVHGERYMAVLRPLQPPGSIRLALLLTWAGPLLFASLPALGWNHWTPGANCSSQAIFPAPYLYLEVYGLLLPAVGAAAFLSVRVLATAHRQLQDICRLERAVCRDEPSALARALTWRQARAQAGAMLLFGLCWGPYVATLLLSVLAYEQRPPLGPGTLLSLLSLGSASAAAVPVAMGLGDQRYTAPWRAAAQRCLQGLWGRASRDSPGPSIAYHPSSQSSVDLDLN
Chain of CYP3A4 (P08684 whole entry): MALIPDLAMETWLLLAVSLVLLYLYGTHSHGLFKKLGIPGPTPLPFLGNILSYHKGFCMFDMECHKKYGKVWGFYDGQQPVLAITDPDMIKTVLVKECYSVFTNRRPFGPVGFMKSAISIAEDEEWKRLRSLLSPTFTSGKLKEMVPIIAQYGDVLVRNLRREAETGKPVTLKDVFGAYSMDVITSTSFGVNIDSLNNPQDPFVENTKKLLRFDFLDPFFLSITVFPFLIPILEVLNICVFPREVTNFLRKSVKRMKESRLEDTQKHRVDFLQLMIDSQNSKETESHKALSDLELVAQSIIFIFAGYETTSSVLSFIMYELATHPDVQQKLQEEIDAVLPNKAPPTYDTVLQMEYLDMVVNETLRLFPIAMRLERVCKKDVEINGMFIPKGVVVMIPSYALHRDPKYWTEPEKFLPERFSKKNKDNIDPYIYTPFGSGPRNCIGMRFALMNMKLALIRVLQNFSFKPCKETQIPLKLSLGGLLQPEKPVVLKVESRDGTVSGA
Chain of CYP2E1 (P05181 whole entry): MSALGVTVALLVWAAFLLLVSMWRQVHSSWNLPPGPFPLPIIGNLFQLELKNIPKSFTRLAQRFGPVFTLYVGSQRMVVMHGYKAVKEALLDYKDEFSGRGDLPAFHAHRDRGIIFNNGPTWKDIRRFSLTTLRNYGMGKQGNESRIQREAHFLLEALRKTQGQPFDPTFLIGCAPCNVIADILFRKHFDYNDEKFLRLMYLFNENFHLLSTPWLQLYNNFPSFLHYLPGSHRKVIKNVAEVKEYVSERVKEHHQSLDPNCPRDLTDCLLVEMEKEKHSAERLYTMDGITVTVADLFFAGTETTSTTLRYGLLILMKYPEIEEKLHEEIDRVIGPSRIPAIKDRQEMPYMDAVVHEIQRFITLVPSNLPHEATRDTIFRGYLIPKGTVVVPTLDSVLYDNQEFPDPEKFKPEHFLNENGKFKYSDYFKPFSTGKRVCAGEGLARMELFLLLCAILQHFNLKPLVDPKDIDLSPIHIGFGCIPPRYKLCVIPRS
Chain of CYP2C19 (P33261 whole entry): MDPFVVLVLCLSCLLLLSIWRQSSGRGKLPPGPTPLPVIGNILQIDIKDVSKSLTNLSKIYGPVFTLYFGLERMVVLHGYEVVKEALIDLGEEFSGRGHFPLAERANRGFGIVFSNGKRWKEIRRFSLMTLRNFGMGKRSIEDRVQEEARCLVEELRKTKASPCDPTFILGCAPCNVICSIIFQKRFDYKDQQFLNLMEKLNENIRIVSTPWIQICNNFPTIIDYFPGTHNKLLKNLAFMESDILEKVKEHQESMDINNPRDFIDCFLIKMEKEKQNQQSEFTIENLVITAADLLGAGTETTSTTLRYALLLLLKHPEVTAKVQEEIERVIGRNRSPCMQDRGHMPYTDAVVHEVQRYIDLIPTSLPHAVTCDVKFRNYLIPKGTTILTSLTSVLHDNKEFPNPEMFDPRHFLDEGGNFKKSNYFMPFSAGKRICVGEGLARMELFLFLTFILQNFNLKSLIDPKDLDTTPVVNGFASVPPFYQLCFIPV
Chain of hERG potassium channel (Q12809 whole entry): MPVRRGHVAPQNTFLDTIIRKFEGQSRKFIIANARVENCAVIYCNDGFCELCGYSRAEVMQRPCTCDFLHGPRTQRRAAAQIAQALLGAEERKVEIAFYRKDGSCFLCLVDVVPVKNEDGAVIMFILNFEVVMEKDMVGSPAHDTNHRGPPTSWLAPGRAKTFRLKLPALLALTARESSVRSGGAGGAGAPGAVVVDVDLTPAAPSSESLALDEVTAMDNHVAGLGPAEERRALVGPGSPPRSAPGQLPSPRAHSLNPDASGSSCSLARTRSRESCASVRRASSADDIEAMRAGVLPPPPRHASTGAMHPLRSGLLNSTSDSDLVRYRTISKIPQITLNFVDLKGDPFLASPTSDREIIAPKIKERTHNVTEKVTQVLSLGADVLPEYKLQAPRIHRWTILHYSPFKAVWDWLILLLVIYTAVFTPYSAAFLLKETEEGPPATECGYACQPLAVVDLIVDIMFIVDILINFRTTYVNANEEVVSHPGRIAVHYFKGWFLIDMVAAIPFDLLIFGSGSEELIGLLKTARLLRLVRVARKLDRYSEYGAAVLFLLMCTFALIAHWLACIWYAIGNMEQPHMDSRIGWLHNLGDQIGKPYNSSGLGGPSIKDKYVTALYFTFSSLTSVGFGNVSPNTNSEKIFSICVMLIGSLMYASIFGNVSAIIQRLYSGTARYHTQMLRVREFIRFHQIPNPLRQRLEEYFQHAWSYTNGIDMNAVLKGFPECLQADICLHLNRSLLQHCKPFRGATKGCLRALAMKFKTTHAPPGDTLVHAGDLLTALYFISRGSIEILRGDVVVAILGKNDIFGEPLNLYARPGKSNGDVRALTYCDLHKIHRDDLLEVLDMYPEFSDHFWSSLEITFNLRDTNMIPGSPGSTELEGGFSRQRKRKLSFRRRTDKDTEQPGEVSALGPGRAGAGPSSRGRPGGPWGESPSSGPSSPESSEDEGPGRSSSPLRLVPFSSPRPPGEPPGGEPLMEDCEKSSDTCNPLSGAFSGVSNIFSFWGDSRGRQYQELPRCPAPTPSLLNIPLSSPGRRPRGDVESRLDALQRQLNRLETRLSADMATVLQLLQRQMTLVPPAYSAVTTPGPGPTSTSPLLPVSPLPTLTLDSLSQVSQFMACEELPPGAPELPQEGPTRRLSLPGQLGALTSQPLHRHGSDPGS
Chain of rTGR5 (Q80T02 whole entry): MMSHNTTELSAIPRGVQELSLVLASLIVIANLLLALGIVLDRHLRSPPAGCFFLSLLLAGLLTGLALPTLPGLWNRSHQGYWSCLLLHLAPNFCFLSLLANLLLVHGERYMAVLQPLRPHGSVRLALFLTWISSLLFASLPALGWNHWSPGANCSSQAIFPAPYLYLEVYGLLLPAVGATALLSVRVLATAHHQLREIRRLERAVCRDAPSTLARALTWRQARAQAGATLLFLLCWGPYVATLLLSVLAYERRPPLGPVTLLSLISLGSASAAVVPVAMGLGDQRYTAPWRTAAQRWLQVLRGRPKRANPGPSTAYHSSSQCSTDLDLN
Chain of CYP2C9 (P11712 whole entry): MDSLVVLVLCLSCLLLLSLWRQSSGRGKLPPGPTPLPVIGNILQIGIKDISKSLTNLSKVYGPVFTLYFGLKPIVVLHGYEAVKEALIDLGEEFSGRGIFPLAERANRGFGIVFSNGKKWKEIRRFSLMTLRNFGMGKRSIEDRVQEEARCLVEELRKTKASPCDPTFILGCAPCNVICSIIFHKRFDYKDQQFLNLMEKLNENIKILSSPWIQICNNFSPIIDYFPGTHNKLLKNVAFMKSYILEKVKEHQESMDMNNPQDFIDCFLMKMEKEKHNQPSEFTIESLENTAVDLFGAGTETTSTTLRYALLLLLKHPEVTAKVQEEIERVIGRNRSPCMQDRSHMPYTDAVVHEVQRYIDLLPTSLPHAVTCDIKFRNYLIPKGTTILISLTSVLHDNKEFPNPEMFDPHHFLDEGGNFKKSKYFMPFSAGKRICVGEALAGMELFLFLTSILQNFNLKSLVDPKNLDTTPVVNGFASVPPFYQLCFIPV
Chain of mTGR5 (Q80SS6 whole entry): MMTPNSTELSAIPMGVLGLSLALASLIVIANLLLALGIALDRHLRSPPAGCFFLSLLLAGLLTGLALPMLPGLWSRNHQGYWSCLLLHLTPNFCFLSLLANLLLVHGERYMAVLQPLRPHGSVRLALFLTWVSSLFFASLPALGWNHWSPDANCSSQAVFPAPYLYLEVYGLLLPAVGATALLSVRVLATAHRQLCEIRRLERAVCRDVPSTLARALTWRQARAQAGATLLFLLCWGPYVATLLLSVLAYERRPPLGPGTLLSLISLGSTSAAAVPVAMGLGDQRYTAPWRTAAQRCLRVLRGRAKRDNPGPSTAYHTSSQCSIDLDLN
Chain of CYP2D6 (P10635 whole entry, canonical isoform): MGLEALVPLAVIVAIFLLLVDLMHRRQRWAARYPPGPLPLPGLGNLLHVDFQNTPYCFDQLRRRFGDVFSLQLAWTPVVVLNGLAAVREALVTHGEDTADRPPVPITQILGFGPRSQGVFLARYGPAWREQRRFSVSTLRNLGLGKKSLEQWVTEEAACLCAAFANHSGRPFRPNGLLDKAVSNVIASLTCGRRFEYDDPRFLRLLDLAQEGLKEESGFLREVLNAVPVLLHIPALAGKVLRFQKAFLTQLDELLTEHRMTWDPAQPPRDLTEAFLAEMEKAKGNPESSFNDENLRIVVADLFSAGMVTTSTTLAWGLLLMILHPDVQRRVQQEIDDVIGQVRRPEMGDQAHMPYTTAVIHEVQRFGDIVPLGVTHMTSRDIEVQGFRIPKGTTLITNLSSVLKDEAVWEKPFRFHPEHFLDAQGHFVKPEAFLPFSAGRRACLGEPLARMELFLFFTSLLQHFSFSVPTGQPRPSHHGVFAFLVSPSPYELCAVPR

Compound	ATP Content EC50 (HepG2 cells [1])	mTGR5 CHO EC50 (mTGR5)	IC50 (hERG potassium channel)	hERG potassium channel inhibition (in words) (hERG potassium channel)	rTGR5 CHO EC50 (rTGR5)	IC50 (CYP2D6)	IC50 (CYP2C19)	IC50 (CYP2E1)	IC50 (CYP3A4; [10])	IC50 (CYP3A4; [11])	IC50 (CYP1A2)	IC50 (CYP2C9)	Membrane Integrity (LDH measure) LC50 (HepG2 cells [2])	Activation of nuclear receptor panel, agonist mode [3]	Activity on nuclear receptor panel, antagonist mode [3]	LogPA−: 1-octanol-water partition coefficient as ionized species [4]	Modulation of FXR target genes BSEP, SHP, OSTβ and CYP7A1 [5]	HTR-FRET (cAMP) Human TGR5 EC50 (hTGR5 [6])	hTGR5 CHO EC50 (hTGR5 [7])	EC50 (dTGR5)	other results
CC[C@H]1[C@@H](O)C2C3CC[C@H]([C@H](C)Cc4nc(=O)o[nH]4)[C@@]3(C)C[C@H](O)C2[C@@]2(C)CC[C@@H](O)C[C@@H]12 (stereo partly drawn) [Compound 6, 3α,7α,11β-trihydroxy-6α-ethyl-22-(1,2,4-oxadiazol-5-oxo-3-yl)-23,24-bisnor-5β-cholane]	No toxicity	No activity	> 100 µM	Compounds L1, 3, 5, 6 and 7 did not inhibit hERG potassium channel.	No activity	> 10 µM	> 10 µM	> 10 µM	> 10 µM	> 10 µM	> 10 µM	> 10 µM	No toxicity	Neither compound activated any of the receptors	Neither compound activated any of the receptors	1.7	significantly bind to FXR in hepatic cells modulating FXR target genes	No activity	No activity	1.5 ± 0.3 µM	CMC: Critical Micellar Concentration [8]: 28 mM
CC[C@H]1[C@@H](O)C2C3CC[C@H]([C@H](C)CCc4nc(=O)o[nH]4)[C@@]3(C)C[C@H](O)C2[C@@]2(C)CC[C@@H](O)C[C@@H]12 (stereo partly drawn) [Compound 7, 3α,7α,11β-Trihydroxy-6α-ethyl-23-(1,2,4-oxadiazol-5-oxo-3-yl)-24-nor-5β-cholane]	No toxicity		> 100 µM	Compounds L1, 3, 5, 6 and 7 did not inhibit hERG potassium channel.	No activity	> 10 µM	> 10 µM	> 10 µM	> 10 µM	> 10 µM	> 10 µM	> 10 µM	No toxicity	Neither compound activated any of the receptors	Neither compound activated any of the receptors	2.0	significantly bind to FXR in hepatic cells modulating FXR target genes	No activity	No activity	7.6 ± 0.01 µM	EC50 (mTGR5): 9.5 ± 2 µM
CC[C@H]1[C@@H](O)C2C3CC[C@H]([C@H](C)CCC(=O)O)[C@@]3(C)C[C@H](O)C2[C@@]2(C)CC[C@@H](O)C[C@@H]12 (stereo partly drawn) [Compound L1, reference compound]	No toxicity	No activity			No activity	> 10 µM	> 10 µM	> 10 µM	> 10 µM	> 10 µM	> 10 µM	> 10 µM	No toxicity	Neither compound activated any of the receptors	Neither compound activated any of the receptors	0.84					hERG potassium channel inhibition (in words) (hERG potassium channel; Table 7 footnote): Compounds L1, 3, 5, 6 and 7 did not inhibit hERG potassium channel.; IC50 (hERG potassium channel; read-out: hERG inhibition IC50, Table 7): > 100 µM; dTGR5 CHO EC50 (dTGR5): No activity
C[C@H](CCC(=O)O)[C@H]1CC[C@H]2[C@@H]3CC[C@@H]4C[C@H](O)CC[C@]4(C)[C@H]3CC[C@]12C [LCA, lithocholic acid, reference compound]																					EC50 (HepG2 cells [1]; Homo sapiens): 75 ± 5 µM; CC50 [9]: 100 ± 5 µM
